Results: patent publication US20250041296A1, “NOVEL DOSING REGIMENS FOR MDM2 INHIBITORS” (NOVARTIS AG, priority 2018, published 2025)

How the values were obtained:
[1] = test system: p53; conditions: preclinical cell and in vivo models; cited from earlier work
[2] = test system: solid and hematological tumors; conditions: versus original day 1 to day 7 regimen of a 28-day cycle; cited from earlier work
[3] = Population PK/PD model parameter estimates (NLME, Monolix) from the CHDM201X2101 dataset; design: species or system human; conditions: method=FIXED
Source text: For model building the PK/PD dataset of CHDM201X2101 were used and an NLME estimation (Monolix 4.3.2) performed. The model structure and the parameter estimates are provided below. This provided inputs for R/shiny. The m/xR package were used for simulation of longitudinal data from the MLXTRAN model.

[4] = test system: R/R AML subjects; experiment: Clinical study CHDM201X2101, single agent HDM201; assay type: in vivo, human
Method: HDM201 is a novel investigational agent with promising single-agent activity in AML patients. Study CHDM201X2101 investigated several dose regimens of single agent HDM201 in R/R AML subjects. CR/CRi rate of 24% was reported in subjects with R/R AML who received oral HDM201 at a dose of 45 mg from D1 to D7 every 4 weeks (Q4W) (Regimen 2C), which was the dose assessed as recommended dose for expansion (RDE).
The starting dose and regimen selection for HDM201 in dose escalation is based on the previous Phase I dose escalation and expansion study of HDM201 as a single-agent in subjects with R/R AML ([HDM201X2101]). In this Phase I study, HDM201 was investigated in subjects with solid tumors and hematological malignancies. A total of 27 subjects with hematological malignancies (26 AML and one acute lymphoblastic leukemia (ALL)) have been enrolled across various regimens. […] According to HDM201X2101, Regimen 2C was determined to be the recommended Phase 2 dose (RP2D) for further development of HDM201 as a single-agent.
With this regimen, the RD has been determined as 45 mg HDM201 in hematological tumors in the CHDM201X2101 study. […] Proceedings of the American Association for Cancer Research Annual Meeting 2017; 2017 Apr. 1-5; Washington, DC. Philadelphia (PA): AACR; Cancer Res 2017; 77(13 Suppl):Abstract nr CT154. doi:10.1158/1538-7445.AM2017-CT154).

[5] = test system: AML/MDS subjects; experiment: Clinical study CPDR001X2105, MBG453 single agent; assay type: in vivo, human; conditions: 400 mg Q2W and 800 mg Q4W
Method: (§1) The MBG453 single agent RD has been determined as 800 mg Q4W in solid tumor subjects primarily based on PK and PKPD modeling of target (TIM-3) occupancy. MBG453 at the dose level of 800 mg Q4W was predicted to give sustained target occupancy of 90% in tumor in >90% of subjects. […] MBG453 single agent is also being evaluated in AML/MDS subjects in the CPDR001X2105 study with Q4W and Q2W regimens.
The RD in AML/MDS has not yet been determined, however it is not expected to be different from solid tumors, based on preliminary PK and safety data.

[6] = test system: solid tumor subjects; experiment: Clinical study CMBG453X2101, MBG453 single agent; assay type: in vivo, human; conditions: any dose up to 1200 mg Q2W or Q4W
Method: as §1

[7] = R/R AML subjects, single agent HDM201
[8] = subjects treated at RDE (Regimen 2C: 45 mg D1 to D7 Q4W)

pop_Cl [3]	pop_V [3]	pop_ka [3]	tumor lysis syndrome (TLS) Grade 3 or 4 [4, 8]	Compound	effect on p53 function [1]	anti-tumor activity when administration is shortened to 5 consecutive days [2]	most common grade 3/4 AE reported as suspected to study treatment ([4]; 27 subjects with hematological malignancies across various regimens)	CR/CRi rate ([4]; R/R AML subjects, oral 45 mg D1 to D7 Q4W (Regimen 2C))	duration of responses [4, 7]	time at which response was seen [4, 7]	gastro-intestinal AEs, grade [4, 8]	tolerability [5]	safety signal [6]
pop_Cl = 6.18 [method=FIXED],	pop_V = 119 [method=FIXED],	pop_ka = 0.489 [method=FIXED],	about 10%	COc1ncc(-c2nc3c(n2C(C)C)[C@H](c2ccc(Cl)cc2)N(c2cc(Cl)cn(C)c2=O)C3=O)c(OC)n1 [HDM201, (S)-5-(5-Chloro-1-methyl-2-oxo-1,2-dihydro-pyridin-3-yl)-6-(4-chloro-phenyl)-2-(2,4-dimethoxy-pyrimidin-5-yl)-1-isopropyl-5,6-dihydro-1H-pyrrolo[3,4-d]imidazol-4-one]	restore p53 function	relevant anti-tumor activity	thrombocytopenia, neutropenia, anemia and Tumor Lysis Syndrome (TLS)	24%	up to 152 days	within the first two cycles	only low grade	–	–
–	–	–	–	MBG453: TIM-3 inhibitor MBG453 (Novartis), given by i.v. infusion	–	–	–	–	–	–	–	well tolerated	No significant safety signal
